Results from patent publication US5034528A, “Compositions for the control of hyperlipidemia” (North Carolina Central University, priority 1988, dated 1991).
Where two headings read alike, the source gives them in different places.

Legend:
[1] = test system: serum cholesterol and triglyceride levels; experiment: Serum testing of normal rats: serum cholesterol and triglyceride levels, oral; assay type: in vivo; conditions: Sprague-Dawley male rats, 20 mg/kg/day orally
Source text: Test solution of Compounds A, F, J, M, N and O were suspended in an aqueous solution of 1% CMC, homogenized and administered orally to six Sprague-Dawley male rats, which each weighted approximately 350 grams. Administration of the compounds was by an intubation needle. The rats were each fed with 20 milligrams of Compounds A, F, J, M, N and O per kilogram of body weight per day for 14 days. Similarly, six Sprague-Dawley male rats of approximately the same weight (that used for testing F weighed approximately 160 grams) were fed similar volumes of the same aqueous 1% CMC solution without the active agents, also orally, administered by intubation needle. In addition, as a control, a similar group of six male Sprague-Dawley rats were untreated.
On Days 7 and 14, blood was obtained from each of the rats of the three groups by tail vein bleeding. The blood obtained was separated by centrifugation for three minutes. Serum cholesterol and triglyceride levels were determined in accordance with the procedure of Example 6.

[2] = test system: cholesterol content of serum lipoprotein (VLDL, LDL, HDL); experiment: Cholesterol content of serum lipoprotein of rats treated orally for 14 days; assay type: in vivo; conditions: Sprague-Dawley rats, orally 14 days, 20 mg/kg/day; control 1% CMC = 100
Procedure: The cholesterol content of serum lipoprotein of
Sprague-Dawley Rats treated orally for 14 days at 20 mg/kg/day

[3] = test system: serum cholesterol and serum triglyceride levels; experiment: Testing of hyperlipidemic mice: serum cholesterol and serum triglyceride levels on atherogenic diet; assay type: in vivo; conditions: hyperlipidemic CF1 male mice, 20 mg/kg/d ip, Day 12; diet-hyperlipidemic = 100
Procedure: A group of six CF1 male mice (about 25 g) were placed on a commercial diet (U.S. Biochemical Corporation BAsal Atherogenic Test Diet) which produced a "hyperlipidemic" state. That is, the average serum cholesterol level in the group of treated mice was raised from 122 to 375 mg percent and triglyceride levels were raised from 137 to 367 mg/dL.

in vivo = conditions: mouse, ip
[4] = test system: serum cholesterol and serum triglyceride levels; experiment: Testing of normal mice: serum cholesterol and serum triglyceride levels, compounds 20 mg/kg/d ip for 16 days; assay type: in vivo; conditions: CF1 male mice; for response vs control in vivo at 20 mg/kg/day: Mus musculus
Procedure: The following compounds were tested for their hypolipidemic activity in CF1 mice.
Compounds A-V as defined above, were suspended in an aqueous 1 percent carboxymethylcellulose (CMC) solution and homogenized. Each of the so prepared compounds were administered to a group of six CF1 male mice, each weighing approximately 25 grams, intra-peritioneally for 16 days. Each of these compounds were provided in a dosage of 20 mg/kg/d ip. On Days 9 and 16 blood was obtained by tail vein bleeding. The blood serum so obtained was separated by centrifugation for three minutes. Serum cholesterol levels were determined by a modification of the Liebermann-Burchard reaction (Ness, Clin. Chim. Acta., Vol. 10, 229 [1964]). Serum triglyceride levels were determined on Day 16 by use of the Fisher, Hycel Triglyceride Test Kit.
In addition to the above-described treated mice, an untreated control group of six mice were similarly tested on Days 9 and 16 to determine their serum cholesterol and trigylceride blood levels. Based on the results obtained for the untreated control group, the percent control, based on serum cholesterol and serum triglyceride levels of the treated mice compared to the untreated mice, was obtained. Table 1 reports this percent control, including standard deviation, indicating the level of confidence of these numbers.

mice = experiment: LD50 in mice as single injection IP
[5] = 216 h, Day 9, ± standard deviation, read-out: Serum Cholesterol, Day 9 (percent control)
[6] = 384 h, Day 16, ± standard deviation, read-out: Serum Cholesterol, Day 16 (percent control)
[7] = 384 h, Day 16, ± standard deviation, read-out: Serum Triglyceride, Day 16 (percent control)

SMILES | Serum Cholesterol, Day 7, Percent of Control [1] | Serum Triglyceride, Day 7, Percent of Control [1] | Serum Cholesterol, Day 14, Percent of Control [1] | Serum Triglyceride, Day 14, Percent of Control [1] | HDL cholesterol, Percent of Control [2] | LDL cholesterol, Percent of Control [2] | VLDL cholesterol, Percent of Control [2] | Serum Cholesterol, Percent of Control, hyperlipidemic mice [3] | Serum Triglyceride, Percent of Control, hyperlipidemic mice [3] | LD50 (in vivo) [mg/kg] | response vs control in vivo at 20 mg/kg/day [4, 5] [%] | response vs control in vivo at 20 mg/kg/day [4, 6] [%] | response vs control in vivo at 20 mg/kg/day [4, 7] [%] | Serum Cholesterol, Day 9 (percent control) ([4]; Day 9, ± standard deviation) | Serum Cholesterol, Day 16 (percent control) ([4]; Day 16, ± standard deviation) | Serum Triglyceride, Day 16 (percent control) ([4]; Day 16, ± standard deviation) | LD50 value in mice as single injection IP (mice) [mg/kg]
CC(=O)n1[nH]c(=O)n(-c2ccccc2)c1=O [A, 4-phenyl-1-methylcarbonyl-1,2,4-triazolidine-3,5-dione] | 89% of Control | 62% of Control | 69% of Control | 48% of Control | 441% of Control | 74% of Control | 44% of Control | 41% of Control | 40% of Control |  |  |  |  |  |  |  | 
CCOC(=O)c1nc(=O)n(-c2ccccc2)c(=O)[nH]1 [Compound N, 3-phenyl-6-ethoxycarbonyl-1,3,5-triazine-2,4(1 --H,3 --H)-dione] | 71% of Control | 61% of Control | 67% of Control | 53% of Control | 409% of Control | 87% of Control |  | 50% of Control | 46% of Control | > 500 |  |  |  |  |  |  | 
COc1ccc(-n2c(=O)[nH][nH]c2=O)cc1 [F, 4-(4-methoxyphenyl)-1,2,4-triazolidine-3,5-dione] | 77% of Control | 87% of Control | 66% of Control | 81% of Control | 141% of Control | 78% of Control | 59% of Control |  |  |  |  |  |  |  |  |  | 
O=C(Nc1ccccc1)n1[nH]c(=O)n(-c2ccccc2)c1=O [I, 4-phenyl-1-N-phenylcarbamoyl-1,2,4-triazolidine-3,5-dione] |  |  |  |  |  |  |  |  |  |  | 79 ± 7 | 74 ± 6 | 68 ± 6 |  |  |  | 
O=c1[nH][nH]c(=O)n1-c1ccc(Cl)cc1 [J, 4-(4-chlorophenyl)-1,2,4-triazolidine-3,5-dione] | 59% of Control | 61% of Control | 60% of Control | 52% of Control | 194% of Control | 43% of Control | 98% of Control | 46% of Control | 49% of Control |  |  |  |  |  |  |  | 
CCOC(=O)C1n2c(=O)n(-c3ccc(Cl)cc3)c(=O)n21 [L, 3-(4-chlorophenyl)-6-ethoxyacarbonyl-1,3,5-triazabicyclo[3.1.0]hexane-2,4-dione] |  |  |  |  |  |  |  |  |  |  |  |  |  | 74 ± 3 | 56 ± 5 | 66 ± 7 | 
CCOC(=O)C1n2c(=O)n(-c3ccccc3)c(=O)n21 [M, 3-phenyl-6-ethoxycarbonyl-1,3,5-triazabicyclo[3.1.0]hexane-2,4-dione] | 70% of Control | 36% of Control | 36% of Control | 54% of Control | 340% of Control | 67% of Control | 71% of Control | 46% of Control | 54% of Control |  |  |  |  | 62 ± 6 | 57 ± 5 | 59 ± 6 | > 500
CCOC(=O)c1nc(=O)n(-c2ccc(Cl)cc2)c(=O)[nH]1 [O, 3-(4-chlorophenyl)-6-ethoxycarbonyl-1,3,5-triazine-2,4(1H,3 --H)-dione] | 84% of Control | 82% of Control | 60% of Control | 77% of Control | 113% of Control | 78% of Control | 27% of Control |  |  |  |  |  |  |  |  |  | 
CCCCCC(=O)n1c(=O)n(CCCC)c(=O)n1C(=O)CCCCC [T, 4-(4-n-butyl)-1,2 dipentylcarbonyl-1,2,4-triazolidine-3,5-dione] |  |  |  |  |  |  |  |  |  |  | 69 | 49 | 53 |  |  |  | 
